For the assay, the target named is T1, cystathionine γ-lyase (CSE) (Homo sapiens, UniProt P32929).
T1 construct: gene CTH
Briefly: methylene blue H2S production assay with purified recombinant CSE, L-cysteine substrate. Type of assay: biochemical.

For one compound, IC50 results are on record in article PMC8076300, “A novel cystathionine γ-lyase inhibitor, I194496, inhibits the growth and metastasis of human TNBC via downregulating multiple signaling pathways” (Scientific Reports, 2021).

Each structure is given as a SMILES string.

T1 sequence (P32929 whole entry): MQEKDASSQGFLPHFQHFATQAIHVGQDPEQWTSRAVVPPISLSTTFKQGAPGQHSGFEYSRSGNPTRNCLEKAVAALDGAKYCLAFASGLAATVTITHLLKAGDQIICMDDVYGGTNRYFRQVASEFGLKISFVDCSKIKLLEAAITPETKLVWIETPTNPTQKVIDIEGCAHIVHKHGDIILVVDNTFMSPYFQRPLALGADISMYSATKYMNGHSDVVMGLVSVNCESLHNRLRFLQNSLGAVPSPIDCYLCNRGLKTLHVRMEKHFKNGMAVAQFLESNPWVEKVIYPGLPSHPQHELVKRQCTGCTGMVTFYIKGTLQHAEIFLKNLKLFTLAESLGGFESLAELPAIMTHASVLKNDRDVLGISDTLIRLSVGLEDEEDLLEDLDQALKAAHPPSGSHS

As usually defined, the IC50 is the concentration needed to halve the response being measured. `COc1ccc(-c2cc(C(F)F)n3ncc(C(=O)Nc4ccc(S(=O)(=O)Nc5ccccc5OC)cc4)c3n2)cc1` [I194496, 7-(difluoromethyl)-N-{4-[(2-methoxyanilino)sulfonyl]phenyl}-5-(4-methoxyphenyl)pyrazolo[1,5-a]pyrimidine-3-carboxamide]: the IC50 worked out at 790 µM.
